Results from patent publication US20220296866A1, “METHODS, DEVICES AND COMPOSITIONS FOR LOCAL DELIVERY” (POLY-MED, INC., priority 2019, published 2022).

How the values were obtained:
[1] = In vitro drug release evaluation of Mitomycin C-eluting devices in artificial urine; format: physicochemical
Description: Devices prepared from earlier examples were characterized for drug release profile in artificial urine to predict in vivo behavior in a human bladder. First, artificial urine was prepared according to ASTM F1828, with a modified buffer. Drug-containing samples were placed in individual 20 mL glass vials and 15 mL artificial urine added to cover the sample. This volume of artificial urine was sufficiently above the Mitomycin C solubility limit for each sample so as not to interfere with release analysis. Filled glass vials were placed in a 37° C. incubator on a 1 Hz orbital bed. As predetermined time points, a total changeover of artificial urine was performed, with the exchanged urine analyzed by HPLC to determine total release of Mitomycin C per time period.
HPLC analysis was performed using a Waters ACQUITY ArcHPLC with C18 column using an isocratic method with 71:29 water:methanol mobile phase. Peaks were compared against a standard curve to determine concentration in the sample, and calculated to total percentage release based on fluid volume and loading of Mitomycin C in the sample. […] A secondary release of drug is anticipated as the OC9 and SVG12 materials experience degradation.

[2] = Stability of Mitomycin C in PDLG film (colour change); format: physicochemical; settings: evidenced by a change in color from purple to tan
Description: SVG12 (Poly-Med, Inc.) and PDLG (Purasorb PDLG 7507, Corbion) were separately dissolved in chloroform, each at 15% concentration (wt/vol %). Solutions were divided to create different drug-loading solutions according to the associated table. In short, lidocaine (Sigma Aldrich) was added to a solution of SVG12 at a concentration of 134 mg drug per 1 gram of SVG12. Dexamethasone was added to a separate solution of PDLG at a concentration of 29 mg drug per 1 gram of PDLG. Mitomycin C was added to a separate solution of PDLG at a concentration of 6.8 mg drug per 1 gram of PDLG. All solutions were held at room temperature on a roller until completely dissolved. The solutions were cast into thin films using a 25-mil film casting blade and allowed to dry.
Drug-loaded films were cut into rectangles and placed on SVG12-only films. In the case of the dexamethasone- and lidocaine-loaded sample, the cut films were stacked one on top of the other. In the case of mytomycin C-loaded films, 4 drug-loaded films were stacked one on top of the other to increase total delivery payload. On top of the drug-eluting film, a separate SVG12-only film was added which was larger in size. Degradable medical devices and/or compositions were clamped between rubber films between glass plates, clamped to apply pressure, and heated at 50° C. for 3 hours to create a seal between the encapsulation films. […]

With `CO[C@@]12[C@H](COC(N)=O)C3=C(C(=O)C(C)=C(N)C3=O)N1C[C@@H]1N[C@@H]12` [Mitomycin C] the “Mitomycin C release compared with the free gel” value ([1]; OC9/PEG 400 gel placed in the core of the stent, 37° C.) was “Further attenuation”, the “Mitomycin C release profile after the initial release” value ([1]; gel containing 2 parts OC9 and 1 part PEG 400, 37° C., after about 3 days) was “extended release plateau” and the “total percentage release of Mitomycin C” value ([1]; gel containing 2 parts OC9 and 1 part PEG 400, 37° C., over about 3 days) was 13%. For the same compound, the “stability of Mitomycin C in polymer” value [2] was “poor stability”.
